Measurements as given in patent US8106196B2, “Dihydropyrimidine compounds and their uses in manufacture of a medicament for treatment and prevention of viral diseases” (Beijing Molecule Science and Technology Co., Ltd, priority 2007, dated 2012).

What was measured:
[1] = test system: HBV DNA; assay: Antiviral activity: inhibition of HBV DNA in supernatant of HepG 2.2.15 cells (dot blot hybridization); type: cell-based, hepatitis B virus (HBV); conditions: for IC50: Hepatitis B virus, HepG2.2.15, 192 h, HepG 2.2.15 cells, 8 days incubation, hepatitis B-specific band reduced by 50% vs untreated sample, read-out: IC50 (half-maximum inhibitory concentration, HBV DNA); for SI: selectivity index, from TC50 and IC50 in HepG 2.2.15 cells
Description: The antiviral activity of the compounds according to the present invention was determined by the methods described by Sells et al. (M. A. Sells, M. L. Chen, g. Acs, Proc. Natl. Acad. Sci., 1987, 84, 1005-1009) and Korba et al., (B. E. Korba, J. L. Gerin, Antiviral Research, 1992, 19. 55-70).
(§1) The antiviral tests were carried out in 96-well microtiter plates. Only growth medium and HepG 2.2.15 cells were added to the first vertical row of the plate as a blank control.
(§2) Stock solutions of the test compounds (50 mM) were first dissolved in DMSO, and further dilutions were prepared in the growth medium of HepG 2.2.15 cell. The compounds according to the present invention, usually in a test concentration of 100 μg/ml (1st test concentration), were pipetted into each well of the second vertical test row of the microtiter plate and subsequently diluted with growth medium plus 2% of foetal calf serum (volume 25 μl) by 2 fold each time, up to 2^10-fold.
225 μl of a HepG 2.2.15 cell suspension (5×10^4 cells/ml) in growth medium plus 2% foetal calf serum were then added to each well of the 96-well microtiter plate.
The test mixture was incubated at 37° C., 5% CO2 for 4 days. The supernatant was subsequently siphoned off and discarded, and 225 μl of freshly prepared growth medium were added to each well. The compounds according to the present invention were added again in a volume 25 μl. The mixture were incubated from another 4 days.
The supernatants were subsequently harvested and siphoned in vacuum onto 96-well dot blot chambers covered with a nylon membrane (in accordance with the instructions of the manufacturer). […]
The viral DNA of the treated HepG 2.2.15 cells on the nylon filter membrane was usually determined using non-radioactive digoxigenin-labelled hepatitis B-specific DNA probes which were in each case labelled with digoxigenin, purified and used for hybridization in accordance with the instructions of the manufacturer.
Briefly speaking, the prehybridization and hybridization were carried out in 5×SSC, 1× blocking agent, 0.1% N-lauroylsacosine, 0.02% SDS and 100 μg of DNA from herring sperm. […] The filler membrane was subsequently washed and the antibodies against digoxigenin of HBV DNA were determined.
The digoxigenin-labeled DNA was detected immunologically in accordance with the instructions of the manufacturer.
Briefly speaking, the filler membrane were washed and prehybridized with a blocking agent (in accordance with the instructions of the manufacturer). […] The chemiluminescent signals of the Hepatitis B-specific DNA were measured by exposing of the filters to an X-ray film (incubation for 10 minutes to 2 hours depending on the signal strength) to determine the half-maximum inhibitory concentration (IC50). […]

[2] = Cytotoxicity in HepG 2.2.15 cells (cell morphology under microscope after 8 days, Reed & Muench); type: cell-based; conditions: human, pathological changes after 8 days, read-out: TC50 (half-maximum toxic concentration)
Description: as §1
as §2, with “2^10-fold. […]” for “2^10-fold.”
Substances-induced cytotoxic or cytostatic changes in HepG 2.2.15 cells were determined as changes in the cell morphology, for example under an optical microscope. […] The average degree of the pathological change and percent inhibition at each concentration were calculated, and a half-maximum toxic concentration (TC50) and a maximum non-toxic concentration TC0 were determined according to Reed & Muench methods. […]
The cytotoxicity and antiviral activity of the compounds according to the present invention were determined by the methods as described above, and the results were shown in Table 1.

Compound: COC(=O)C1=C(C)NC(c2cccs2)=NC1c1ccccc1 (stereo not drawn) [Example 4, methyl 2-(thien-2-yl)-4-phenyl-6-methyl-1,4-dihyropyrimidin-5-carboxylate]
- IC50 [1]: 29.6 µM
- SI [1]: 3.56
- CC50 at 8 days [2]: 105 µM

Compound: COC(=O)C1=C(C)NC(c2cccs2)=NC1c1ccc(F)cc1Cl (stereo not drawn) [Example 1, methyl 2-(thien-2-yl)-4-(2-chloro-4-fluorophenyl)-6-methyl-1,4-dihyropyrimidin-5-carboxylate]
- IC50 [1]: 0.007 µM
- SI [1]: >10^5
- CC50 at 8 days [2]: 1100 µM
